Experimental findings from US5041567A, “Antibacterial monic acid derivatives” (Beecham Group plc, priority 1982, dated 1991) are described below.

The test system of one test is M. suipneumoniae LABER. The experiment in a line: MIC against mycoplasma in vitro. It is filed as cell-based.
In test [1] the test system is M. suipneumoniae ATCC 25095. The experiment in a line: MIC against mycoplasma in vitro. It is filed as cell-based.
Test [2] has as its system M. hyosynoviae ATCC 25591. The experiment in a line: MIC against mycoplasma in vitro. To be noted: M. hyosynoviae ATCC 25591, 6 days, 37° C. Type of test: cell-based.
The next test deals with M. pneumoniae ATCC 15492. The experiment in a line: MIC against mycoplasma in vitro. It is filed as cell-based. Particulars: M. pneumoniae ATCC 15492, 6 days, 37° C.
Test [3] concerns E. coli NCTC 10418. The experiment in a line: MIC against human bacteria in vitro. Type of test: cell-based. To be noted: E. coli NCTC 10418, agar with 5% chocolated horse blood, 18 hours, 37° C.
In the next test the test system is E. coli ESS. The experiment in a line: MIC against human bacteria in vitro. Type of test: cell-based. To be noted: E. coli ESS, 5% chocolated horse blood agar, 18 hours.
For test [4], the system named is Ps. aeruginosa NCTC 10662. The experiment in a line: MIC against human bacteria in vitro. Type of test: cell-based. Particulars: Ps. aeruginosa NCTC 10662, 5% chocolated horse blood agar, 18 hours.
In test [5] the test system is Haemophilus influenzae Wy21. The experiment in a line: MIC against human bacteria in vitro. Type of test: cell-based. Particulars: Haemophilus influenzae Wy21, 5% chocolated horse blood agar, 18 hours.
In test [6] the test system is Neisseria catarrhalis 1502. The experiment in a line: MIC against human bacteria in vitro. Particulars: Neisseria catarrhalis 1502, 5% chocolated horse blood agar, 18 hours. Type of test: cell-based.
A further test deals with Bacillus subtilis 6633. The experiment in a line: MIC against human bacteria in vitro. Type of test: cell-based. Particulars: Bacillus subtilis 6633, 5% chocolated horse blood agar, 18 hours.
The test system of test [7] is Corynebacterium xerosis 9755. The experiment in a line: MIC against human bacteria in vitro. It is filed as cell-based. Particulars: Corynebacterium xerosis 9755, 5% chocolated horse blood agar, 18 hours.
Another test concerns Staph. aureus Russell. The experiment in a line: MIC against human bacteria in vitro. It is filed as cell-based. To be noted: Staph. aureus Russell, 5% chocolated horse blood agar, 18 hours.
The test system of test [8] is Strep. pyogenes R80/421-A. The experiment in a line: MIC against human bacteria in vitro. Particulars: Strep. pyogenes R80/421-A, 5% chocolated horse blood agar, 18 hours. It is filed as cell-based.
The next test concerns Strep. spp. 64/848-C. The experiment in a line: MIC against human bacteria in vitro. Particulars: Strep. spp. 64/848-C, 5% chocolated horse blood agar, 18 hours. It is filed as cell-based.
The subject of test [9] is E. coli NCTC 10418. The experiment in a line: MIC against veterinary bacteria in vitro.
Method: (§1) The activity of the compounds of the Examples against various veterinarily important bacteria, was assayed in vitro using two-fold serial dilutions in Diagnostic Sensitivity Test Agar inoculated with 10^4 organisms.
A further test has as its system E. coli E1. The experiment in a line: MIC against veterinary bacteria in vitro.
The next test concerns S. dublin S7. The experiment in a line: MIC against veterinary bacteria in vitro.
The subject of another test is Bord. bronchiseptica B09. The experiment in a line: MIC against veterinary bacteria in vitro.
A further test relates to Past. multocida PA1. The experiment in a line: MIC against veterinary bacteria in vitro. To be noted: Past. multocida PA1; Diagnostic Sensitivity Test Agar, 18 hours.
For another test, the system named is Past. haemolytica PA5. The experiment in a line: MIC against veterinary bacteria in vitro.
The subject of another test is Strep. uberis SPU1. The experiment in a line: MIC against veterinary bacteria in vitro.
The next test relates to Strep. agalactiae SPA1. The experiment in a line: MIC against veterinary bacteria in vitro.
Where [10] appears, read: Mycoplasmoides pneumoniae, ATCC15492, 144 h, read-out: MIC.
[11] abbreviates: Escherichia coli, NCTC10418, read-out: MIC.
Setting [12] is: Escherichia coli, read-out: MIC.
Setting [13] is: Pseudomonas aeruginosa, NCTC10662, read-out: MIC.
Setting [14] is: Staphylococcus aureus, read-out: MIC.
Where [15] appears, read: Streptococcus pyogenes, read-out: MIC.
The mark [16] stands for this setting: Escherichia coli, NCTC10418, 18 h.
[17] abbreviates: Bordetella bronchiseptica, B09, 18 h.
The mark [18] stands for this setting: Mannheimia haemolytica, PA5, 18 h.
The mark [19] stands for this setting: Streptococcus uberis, SPU1, 18 h.

≈ marks a conversion by molar mass, not a printed value. Where two headings read alike, the source gives them in different places. Bounds are passed on as bounds.

Method for Bord. bronchiseptica B09: as §1
Method for E. coli E1: as §1
Method for Past. haemolytica PA5: as §1
Method for Past. multocida PA1: as §1
Method for S. dublin S7: as §1
Method for Strep. agalactiae SPA1: as §1
Method for Strep. uberis SPU1: as §1

As to `CC(=Cc1cc(C)no1)CC1OCC(CC2OC2C(C)C(C)O)C(O)C1O` (stereo not drawn) [Example 30, 3-Methyl-5-(1-normon-2-yl) isoxazole A], the MIC in the test with M. suipneumoniae LABER (M. suipneumoniae LABER, 6 days, 37° C.) was 2.5 µg/mL (≈ 6.55 µM); in test [1] (M. suipneumoniae ATCC 25095, 6 days, 37° C.), 2.5 µg/mL (≈ 6.55 µM); in [2], 1.0 µg/mL (≈ 2.62 µM); in the test on M. pneumoniae ATCC 15492, 10 µg/mL (≈ 26.2 µM); against E. coli NCTC 10418 [3] it was over 128 µg/mL; in the test with E. coli ESS, 8.0 µg/mL (≈ 21 µM). Also, the MIC was over 128 µg/mL in test [4]; under 0.06 µg/mL in [5]; 8.0 µg/mL (≈ 21 µM) in test [6]; 8.0 µg/mL (≈ 21 µM) in the test with Bacillus subtilis 6633; over 128 µg/mL in test [7]; 16 µg/mL (≈ 41.9 µM) in the test with Staph. aureus Russell. Besides, the MIC in [8] is 32 µg/mL (≈ 83.9 µM); against Strep. spp. 64/848-C, over 128 µg/mL; with E. coli NCTC 10418 [9] (E. coli NCTC 10418, Diagnostic Sensitivity Test Agar, 18 hours, 37° C.), over 80 µg/mL; against E. coli E1 (E. coli E1, Diagnostic Sensitivity Test Agar, 18 hours, 37° C.), over 80 µg/mL; against S. dublin S7 (S. dublin S7, Diagnostic Sensitivity Test Agar, 18 hours), over 80 µg/mL; in the test on Bord. bronchiseptica B09 (Bord. bronchiseptica B09, Diagnostic Sensitivity Test Agar, 18 hours) it was over 80 µg/mL. Moreover, the MIC amounted to 2.5 µg/mL (≈ 6.55 µM) in the test on Past. multocida PA1; 10 µg/mL (≈ 26.2 µM) with Past. haemolytica PA5 (Past. haemolytica PA5, Diagnostic Sensitivity Test Agar, 18 hours); 10 µg/mL (≈ 26.2 µM) against Strep. uberis SPU1 (Strep. uberis SPU1, Diagnostic Sensitivity Test Agar, 18 hours); 40 µg/mL (≈ 105 µM) against Strep. agalactiae SPA1 (Strep. agalactiae SPA1, Diagnostic Sensitivity Test Agar, 18 hours).

For `C/C(=C\c1cc(-c2ccccc2)no1)C[C@@H]1OC[C@H](C[C@@H]2O[C@H]2[C@@H](C)[C@H](C)O)[C@@H](O)[C@H]1O` [Example 31, 5-(1-Normon-2-yl)-3-phenylisoxazole A], the MIC is 10 µg/mL (≈ 22.5 µM) in the test with M. suipneumoniae LABER (Mesomycoplasma hyopneumoniae, 144 h, M. suipneumoniae LABER, 6 days, 37° C., read-out: MIC); 5 µg/mL (≈ 11.3 µM) in test [1] (Mesomycoplasma hyopneumoniae, ATCC25095, 144 h, M. suipneumoniae ATCC 25095, 6 days, 37° C., read-out: MIC); 10 µg/mL (≈ 22.5 µM) in test [2] (144 h, read-out: MIC); over 10 µg/mL in the test with M. pneumoniae ATCC 15492 (setting [10]); over 128 µg/mL with E. coli NCTC 10418 [3] (setting [11]); 64 µg/mL (≈ 144 µM) with E. coli ESS (setting [12]). Moreover, the MIC in [4] (setting [13]) is over 128 µg/mL; in [5] (read-out: MIC), 16 µg/mL (≈ 36.1 µM); in [6] (read-out: MIC) it was 8 µg/mL (≈ 18 µM); in the test on Bacillus subtilis 6633 (read-out: MIC) it was 64 µg/mL (≈ 144 µM); in [7] (read-out: MIC) it was over 128 µg/mL; in the test on Staph. aureus Russell (setting [14]), 128 µg/mL (≈ 289 µM). The MIC in [8] (setting [15]) was 128 µg/mL (≈ 289 µM); with Strep. spp. 64/848-C (read-out: MIC), over 128 µg/mL; with E. coli NCTC 10418 [9] (setting [16]), over 80 µg/mL; in the test on E. coli E1 (Escherichia coli, E1, 18 h), over 80 µg/mL; in the test on S. dublin S7 (Salmonella enterica, S7, 18 h), over 80 µg/mL; against Bord. bronchiseptica B09 (setting [17]), 80 µg/mL (≈ 180 µM). The MIC with Past. haemolytica PA5 (setting [18]) was over 80 µg/mL; against Strep. uberis SPU1 (setting [19]) it was 40 µg/mL (≈ 90.2 µM).

`C/C(=C\c1cc(-c2ccccc2)on1)C[C@@H]1OC[C@H](C[C@@H]2O[C@H]2[C@@H](C)[C@H](C)O)[C@@H](O)[C@H]1O` [Example 34, 3-(1-Normon-2-yl)-5-phenylisoxazole A]: the MIC with M. suipneumoniae LABER (Mesomycoplasma hyopneumoniae, 144 h) was 1 µg/mL (≈ 2.25 µM); in test [1] (Mesomycoplasma hyopneumoniae, ATCC25095, 144 h), 1 µg/mL (≈ 2.25 µM); in [2] (144 h, read-out: MIC), 5 µg/mL (≈ 11.3 µM); in the test on M. pneumoniae ATCC 15492 (setting [10]), 5 µg/mL (≈ 11.3 µM); with E. coli NCTC 10418 [3] (setting [11]), over 128 µg/mL; in the test with E. coli ESS (setting [12]) it was 16 µg/mL (≈ 36.1 µM). For the same molecule, the MIC in test [4] (setting [13]) was over 128 µg/mL; in test [5] (read-out: MIC) it was 2 µg/mL (≈ 4.51 µM); in [6] (read-out: MIC) it was 4 µg/mL (≈ 9.02 µM); with Bacillus subtilis 6633 (read-out: MIC), 4 µg/mL (≈ 9.02 µM); in test [7] (read-out: MIC), over 128 µg/mL; in the test with Staph. aureus Russell (setting [14]), 16 µg/mL (≈ 36.1 µM). In addition, the MIC in test [8] (setting [15]) was 8 µg/mL (≈ 18 µM); with Strep. spp. 64/848-C (read-out: MIC), 64 µg/mL (≈ 144 µM); with E. coli NCTC 10418 [9] (setting [16]), over 80 µg/mL; with E. coli E1 (Escherichia coli, E1, 18 h), over 80 µg/mL; in the test with S. dublin S7 (Salmonella enterica, S7, 18 h) it was over 80 µg/mL; in the test with Bord. bronchiseptica B09 (setting [17]) it was 40 µg/mL (≈ 90.2 µM). Moreover, the MIC in the test with Past. haemolytica PA5 (setting [18]) is over 80 µg/mL; with Strep. uberis SPU1 (setting [19]), 5 µg/mL (≈ 11.3 µM); against Strep. agalactiae SPA1 (Streptococcus agalactiae, SPA1, 18 h), 40 µg/mL (≈ 90.2 µM).
